Source: patent US11883379B1, “9-flouro-dibenzo[B,G]indeno[1′, 2′:3,4]fluoreno-[1,2-D]oxonine-5, 11, 16,21-tetraone as an antimicrobial agent” (KING FAISAL UNIVERSITY, priority 2023, dated 2024)

O=C1Oc2ccc(F)cc2-c2c(c3c4ccccc4c(=O)c3c3c2c(=O)c2ccccc23)C(=O)c2ccccc21 [9-fluoro-dibenzo[b,g]indeno[1′,2′:3,4]fluoreno-[1,2-d]oxonine-5,11,16,21-tetraone]
melting point: 288 to 289 °C
